US8163771B2, “11 β-HSD1 modulators” (Exelixis, Inc., priority 2008, dated 2012)

These compounds were tested against T1, recombinant human 11 β-HSD1 (Homo sapiens, UniProt P28845) (assay: 11 β-HSD1 SPA Assay (Scintillation Proximity Assay)).
T1 construct: made in house; host or cells: E. coli
Format: biochemical
Summary of the method: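 Scintillation proximity read-out of cortisol formed from 40 nM [3H]cortisone by purified recombinant human enzyme (30-100 nM, E. coli) with 1 mM NADPH, pH7.4, 2 hours at room temperature; beads with cortisol antibody and glycyrrhetinic acid stop the reaction, read next day. IC50 derived from inhibition normalised to background and maximal wells.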

T1 sequence (P28845 whole entry): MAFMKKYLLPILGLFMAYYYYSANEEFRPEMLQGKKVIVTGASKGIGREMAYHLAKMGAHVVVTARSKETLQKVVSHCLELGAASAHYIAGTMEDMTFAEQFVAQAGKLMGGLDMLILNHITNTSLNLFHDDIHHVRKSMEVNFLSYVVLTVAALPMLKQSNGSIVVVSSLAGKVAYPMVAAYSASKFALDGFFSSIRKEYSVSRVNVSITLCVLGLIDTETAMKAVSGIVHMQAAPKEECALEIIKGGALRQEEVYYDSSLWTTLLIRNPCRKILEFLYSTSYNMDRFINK

Row | Structure (SMILES) | IC50 [µM]
1 | CC(C)NC(=O)c1ccc(N2[C@@H]3CC[C@H]2C[C@@H](NC(=O)C(C)(C)Oc2ccc(Cl)c(F)c2)C3)nc1 [Example 84, 6-[3-endo-({2-[(4-chloro-3-fluorophenyl)oxy]-2-methylpropanoyl}amino)-8-azabicyclo[3.2.1]oct-8-yl]-N-(1-methylethyl)pyridine-3-carboxamide] | < 0.2
2 | CC(C)NC(=O)c1ccc(N2[C@@H]3CC[C@H]2C[C@@H](NC(=O)C(C)(C)Oc2ccc(F)c(F)c2)C3)nc1 [Example 85, 6-[3-endo-({2-[(3,4-difluorophenyl)oxy]-2-methylpropanoyl}amino)-8-azabicyclo[3.2.1]oct-8-yl]-N-(1-methylethyl)pyridine-3-carboxamide] | < 2
3 | CC(C)(Oc1ccc(Cl)cc1Cl)C(=O)N[C@H]1C[C@H]2CC[C@@H](C1)N2c1ncc(C(=O)NC2CC2)cc1Cl [Example 86, 5-chloro-N-cyclopropyl-6-[3-endo-({2-[(2,4-dichlorophenyl)oxy]-2-methylpropanoyl}amino)-8-azabicyclo[3.2.1]oct-8-yl]pyridine-3-carboxamide] | < 0.2
4 | CC(=O)c1ccc(N2[C@@H]3CC[C@H]2C[C@@H](NC(=O)C(C)(C)Oc2ccc(Cl)cc2Cl)C3)nc1 [Example 87, N-[8-(5-acetylpyridin-2-yl)-8-azabicyclo[3.2.1]oct-3-endo-yl]-2-[(2,4-dichlorophenyl)oxy]-2-methylpropanamide] | < 0.2
5 | CC(C)(Oc1ccc(Cl)cc1Cl)C(=O)N[C@H]1C[C@H]2CC[C@@H](C1)N2c1ccc(N)cn1 [Example 88, N-[8-(5-aminopyridin-2-yl)-8-azabicyclo[3.2.1]oct-3-endo-yl]-2-[(2,4-dichlorophenyl)oxy]-2-methylpropanamide] | < 0.2
6 | COCCNC(=O)c1ccc(N2[C@@H]3CC[C@H]2C[C@@H](NC(=O)C(C)(C)Oc2ccc(Cl)cc2)C3)nc1 [Example 89, 6-[3-endo-({2-[(4-chlorophenyl)oxy]-2-methylpropanoyl}amino)-8-azabicyclo[3.2.1]oct-8-yl]-N-[2-(methyloxy)ethyl]pyridine-3-carboxamide] | < 0.2
7 | CC(C)(Oc1cc(F)c(Cl)cc1Cl)C(=O)N[C@H]1C[C@H]2CC[C@@H](C1)N2c1ccc(C(=O)NCC(F)(F)F)cn1 [Example 90, 6-[3-endo-({2-[(2,4-dichloro-5-fluorophenyl)oxy]-2-methylpropanoyl}amino)-8-azabicyclo[3.2.1]oct-8-yl]-N-(2,2,2-trifluoroethyl)pyridine-3-carboxamide] | < 0.2
8 | CC(C)(Oc1cc(F)c(Cl)cc1Cl)C(=O)N[C@H]1C[C@H]2CC[C@@H](C1)N2c1ccc(C(=O)NC2CC2)cn1 [Example 91, N-cyclopropyl-6-[3-endo-({2-[(2,4-dichloro-5-fluorophenyl)oxy]-2-methylpropanoyl}amino)-8-azabicyclo[3.2.1]oct-8-yl]pyridine-3-carboxamide] | < 0.2
9 | CC(C)(Oc1ccc(Cl)cc1Cl)C(=O)N[C@H]1C[C@H]2CC[C@@H](C1)N2c1ccc(NC(=O)C2CC2)cn1 [Example 92, N-{6-[3-endo-({2-[(2,4-dichlorophenyl)oxy]-2-methylpropanoyl}amino)-8-azabicyclo[3.2.1]oct-8-yl]pyridin-3-yl}cyclopropanecarboxamide] | < 0.2
10 | CC(C)(Oc1ccc(F)c(Cl)c1)C(=O)N[C@H]1C[C@H]2CC[C@@H](C1)N2c1ccc(C(=O)NCC(F)(F)F)cn1 [Example 93, 6-[3-endo-({2-[(3-chloro-4-fluorophenyl)oxy]-2-methylpropanoyl}amino)-8-azabicyclo[3.2.1]oct-8-yl]-N-(2,2,2-trifluoroethyl)pyridine-3-carboxamide] | < 0.2
11 | CC(=O)Nc1ccc(N2[C@@H]3CC[C@H]2C[C@@H](NC(=O)C(C)(C)Oc2ccc(Cl)cc2Cl)C3)nc1 [Example 94, N-{8-[5-(acetylamino)pyridin-2-yl]-8-azabicyclo[3.2.1]oct-3-endo-yl}-2-[(2,4-dichlorophenyl)oxy]-2-methylpropanamide] | < 0.2
12 | CC(C)NC(=O)c1ccc(N2[C@@H]3CC[C@H]2C[C@@H](NC(=O)C(C)(C)Oc2ccc(F)c(Cl)c2)C3)nc1 [Example 95, 6-[3-endo-({2-[(3-chloro-4-fluorophenyl)oxy]-2-methylpropanoyl}amino)-8-azabicyclo[3.2.1]oct-8-yl]-N-(1-methylethyl)pyridine-3-carboxamide] | < 0.2
13 | CC(C)(Oc1cc(F)c(F)cc1Cl)C(=O)N[C@H]1C[C@H]2CC[C@@H](C1)N2c1ccc(C(N)=O)cn1 [Example 96, 6-[3-endo-({2-[(2-chloro-4,5-difluorophenyl)oxy]-2-methylpropanoyl}amino)-8-azabicyclo[3.2.1]oct-8-yl]pyridine-3-carboxamide] | < 0.2
14 | CC(C)(Oc1ccc(F)c(Cl)c1Cl)C(=O)N[C@H]1C[C@H]2CC[C@@H](C1)N2c1ccc(C(N)=O)cn1 [Example 97, 6-[3-endo-({2-[(2,3-dichloro-4-fluorophenyl)oxy]-2-methylpropanoyl}amino)-8-azabicyclo[3.2.1]oct-8-yl]pyridine-3-carboxamide] | < 0.2
15 | CC(C)(Oc1cc(Cl)c(F)cc1Cl)C(=O)N[C@H]1C[C@H]2CC[C@@H](C1)N2c1ccc(C(=O)NCC(F)(F)F)cn1 [Example 98, 6-[3-endo-({2-[(2,5-dichloro-4-fluorophenyl)oxy]-2-methylpropanoyl}amino)-8-azabicyclo[3.2.1]oct-8-yl]-N-(2,2,2-trifluoroethyl)pyridine-3-carboxamide] | < 0.2
16 | CC(C)(Oc1cc(Cl)c(F)cc1Cl)C(=O)N[C@H]1C[C@H]2CC[C@@H](C1)N2c1ccc(C(N)=O)cn1 [Example 99, 6-[3-endo-({2-[(2,5-dichloro-4-fluorophenyl)oxy]-2-methylpropanoyl}amino)-8-azabicyclo[3.2.1]oct-8-yl]pyridine-3-carboxamide] | < 0.2
17 | CC(C)(Oc1ccc(F)c(Cl)c1Cl)C(=O)N[C@H]1C[C@H]2CC[C@@H](C1)N2c1ccc(C(=O)NCC(F)(F)F)cn1 [Example 100, 6-[3-endo-({2-[(2,3-dichloro-4-fluorophenyl)oxy]-2-methylpropanoyl}amino)-8-azabicyclo[3.2.1]oct-8-yl]-N-(2,2,2-trifluoroethyl)pyridine-3-carboxamide] | < 0.2
18 | CC(C)(Oc1ccc(Cl)cc1Cl)C(=O)N[C@H]1C[C@H]2CC[C@@H](C1)N2c1ccc(NS(C)(=O)=O)cn1 [Example 101, 2-[(2,4-dichlorophenyl)oxy]-2-methyl-N-(8-{5-[(methylsulfonyl)amino]pyridin-2-yl}-8-azabicyclo[3.2.1]oct-3-endo-yl)propanamide] | < 0.2
19 | NC(=O)c1ccc(N2[C@@H]3CC[C@H]2C[C@@H](NC(=O)C2(c4cccc(Cl)c4)CC2)C3)nc1 [Example 102, 6-[3-endo-({[1-(3-chlorophenyl)cyclopropyl]carbonyl}amino)-8-azabicyclo[3.2.1]oct-8-yl]pyridine-3-carboxamide] | < 0.2
20 | NC(=O)c1ccc(N2[C@@H]3CC[C@H]2C[C@@H](NC(=O)C2(c4ccc(Cl)c(Cl)c4)CC2)C3)nc1 [Example 103, 6-[3-endo-({[1-(3,4-dichiorophenyl)cyclopropyl]carbonyl}amino)-8-azabicyclo[3.2.1]oct-8-yl]pyridine-3-carboxamide] | < 0.2
21 | NC(=O)c1ccc(N2[C@@H]3CC[C@H]2C[C@@H](NC(=O)C2(c4cccc(F)c4)CC2)C3)nc1 [Example 104, 6-[3-endo-({[1-(3-fluorophenyl)cyclopropyl]carbonyl}amino)-8-azabicyclo[3.2.1]oct-8-yl]pyridine-3-carboxamide] | < 0.2
22 | CC(C)(Oc1ccc(Cl)cc1F)C(=O)N[C@H]1C[C@H]2CC[C@@H](C1)N2c1ccc(C(=O)NCC(F)(F)F)cn1 [Example 105, 6-[3-endo-({2-[(4-chloro-2-fluorophenyl)oxy]-2-methylpropanoyl}amino)-8-azabicyclo[3.2.1]oct-8-yl]-N-(2,2,2-trifluoroethyl)pyridine-3-carboxamide] | < 0.2
23 | CC(C)(Oc1ccc(Cl)cc1Cl)C(=O)N[C@H]1C[C@H]2CC[C@@H](C1)N2c1cccnc1 [Example 106, 2-[(2,4-dichlorophenyl)oxy]-2-methyl-N-(8-pyridin-3-yl-8-azabicyclo[3.2.1]oct-3-endo-yl)propanamide] | < 0.2
24 | CC(C)(Oc1ncc(Cl)cc1Cl)C(=O)N[C@H]1C[C@H]2CC[C@@H](C1)N2c1ccc(C(=O)NCC(F)(F)F)cn1 [Example 107, 6-[3-endo-({2-[(3,5-dichloropyridin-2-yl)oxy]-2-methylpropanoyl}amino)-8-azabicyclo[3.2.1]oct-8-yl]-N-(2,2,2-trifluoroethyl)pyridine-3-carboxamide] | < 0.2
25 | CC(C)(Oc1ccc(Cl)cn1)C(=O)N[C@H]1C[C@H]2CC[C@@H](C1)N2c1ccc(C(=O)NCC(F)(F)F)cn1 [Example 108, 6-[3-endo-({2-[(5-chloropyridin-2-yl)oxy]-2-methylpropanoyl}amino)-8-azabicycio[3.2.1]oct-8-yl]-N-(2,2,2-trifluoroethyl)pyridine-3-carboxamide] | < 0.2
26 | CC(C)(Oc1ccc(F)cn1)C(=O)N[C@H]1C[C@H]2CC[C@@H](C1)N2c1ccc(C(=O)NCC(F)(F)F)cn1 [Example 109, 6-[3-endo-({2-[(5-fluoropyridin-2-yl)oxy]-2-methylpropanoyl}amino)-8-azabicyclo[3.2.1]oct-8-yl]-N-(2,2,2-trifluoroethyl)pyridine-3-carboxamide] | < 0.2
27 | CC(C)(Oc1ccc(Cl)cc1Cl)C(=O)N[C@H]1C[C@H]2CC[C@@H](C1)N2c1ccc(C(=O)NCC(F)(F)F)cc1 [Example 110, 4-[3-endo-({2-[(2,4-dichlorophenyl)oxy]-2-methylpropanoyl}amino)-8-azabicyclo[3.2.1]oct-8-yl]-N-(2,2,2-trifluoroethyl)benzamide] | < 0.2
28 | CC(C)(Oc1ccc(C(F)(F)F)cc1)C(=O)N[C@H]1C[C@H]2CC[C@@H](C1)N2c1ccc(C(=O)NCC(F)(F)F)cn1 [Example 111, 6-{3-endo-[(2-methyl-2-{[4-(trifluoromethyl)phenyl]oxy}propanoyl)amino]-8-azabicyclo[3.2.1]oct-8-yl}-N-(2,2,2-trifluoroethyl)pyridine-3-carboxamide] | < 0.2
